Patent US20110301079A1, “NEUROMEDIN U RECEPTOR AGONISTS AND USES THEREOF” (Instituto di Ricerche di Biologia Molecolare P. Angeletti …, priority 2007, published 2011)

Legend:
[1] = system: dog NMUR1-ATG; assay: FLIPR calcium mobilization assay, dog NMUR1-ATG cell line; format: cell-based
Source text: Human, mouse or rat cDNAs encoding NMUR1 or NMUR2 (as described in Howard et al. Nature 406: 70-74 (2000) were subcloned in pcDNA5 (Invitrogen) and transfected into FLP-In CHO cells and HEK-293 FLP-In cells purchased from Invitrogen (Carlsbad, Calif.) using lipofectamine (Invitrogen). The Flp-In system allows integration and expression of a particular gene of interest at a specific genomic location utilizing the Flp recombinase from yeast. The transfected cells were selected by growth in medium containing 200 μg/mL hygromycin (Invitrogen). Populations were frozen at early passage numbers, and these stocks were used for further studies. Stable clones that expressed the mRNAs were identified functionally by FLIPR as well as by RT-PCR. […] Two different rodent NMUR1 cell lines were thus generated: one with the codon as predicted from the genomic databases and another cell line with an engineered methionine (ATG) as the start codon. The dog NMU receptors were also cloned from intestine RNA (NMUR1) and brain (NMUR2) and stable cell lines were generated as used for the human and rodent cell lines. […] To ensure high levels of expression in a heterologous system, a dog NMUR1 cell line was generated that contains an ATG as the start codon. Additionally, stable cell lines expressing the human receptors were generated in HEK-293/aeq 17 cells which stably express the aequorin gene under the CMV promoter. The human NMUR2 cDNA was cloned into pcDNA3.1 and human NMUR1 was subcloned into pIRES-puro (Clontech, Mountain View, Calif.), after transfection cells were selected in media containing G418 and either hygromycin (NMUR2) or puromycin (NMUR1).
The NMU receptors signal primarily through Gαq/11 proteins; therefore calcium mobilization assays can be utilized for functional activity.
Stable cell lines expressing human and or rodent NMUR1 or human NMUR2 receptors are plated at a density of 12,000 cells per well overnight on poly-lysine coated 384-well black-walled plates. The following day, the media is removed from the plates and the cells were subsequently loaded with Fluo-3 (Molecular Probes), a calcium sensitive dye, diluted in FLIPR buffer (1× Hank's buffered saline containing 20 mM HEPES, 0.1% BSA, 2.5 mM probenecid (Sigma) and 1.6 mM TR40). All reagents are from Invitrogen unless otherwise noted. Peptide stocks are resuspended in DMSO at a stock concentration of 2 mM and diluted in FLIPR buffer on the day of the experiment to a 4 μM working stock solution.
After a 90 minute incubation at room-temperature, cell plates are loaded onto a FLIPR (Molecular Devices) to monitor cellular fluorescence (excitation=488 nm; emission=540 nm) before and after compound/peptide addition. Eight to twelve point dose responses are tested on NMUR-expressing cell lines using FLIPR with 1 μM peptide as the highest dose. The response after peptide addition is taken as the maximum fluorescence units minus the fluorescence immediately prior to stimulation for each well. EC50 values are calculated using GraphPad Prism (San Diego, Calif.) software.
Percent activity refers to the maximum response at 1 μM compared to the human NMU-25 response at the same concentration.

[2] = system: diet-induced obese animals; assay: Chronic administration by subcutaneous micro-osmotic pumps; format: in vivo, mice; conditions: two weeks
Method: Chronic administration of peptide was evaluated using micro-osmotic pumps designed to deliver 0.5 μl/h (Alza Co.). Pumps were filled with peptide or vehicle and implanted subcutaneously in the intrascapular space in diet-induced obese animals. Mice were fed ad libitum and food intake and body weight were measured daily for two weeks. […] Cumulative body weight change (FIG. 2A) and cumulative food intake (FIG. 2B) with two-week treatment of NMU and NMS are shown.

[3] = Pharmacokinetic analysis using the FLIPR-based bioassay of plasma; format: in vivo; conditions: mice, 10 mg/kg subcutaneously, FIG. 5
Method: Peptide exposure levels in dosed animals were measured using the bioassay. Animals were dosed subcutaneously and plasma was collected at various time points post-dose. The bioassay is a FLIPR-based assay that measures the concentration of peptide in plasma from animals dosed with hNMU-25 or NMS. The assay is run essentially as described above (Example 2) with the following modifications: sample preparation prior to the assay is performed on ice to minimize degradation of plasma samples. The assay was run with 4% plasma as the final concentration. A three-point titration was done with the dosed plasma and tested on human NMUR1-expressing cell lines using FLIPR. The response after sample addition was taken as the maximum fluorescence units minus the fluorescence immediately prior to stimulation for each well. In addition to a three-point titration of dosed plasma samples, a 16-point titration of the peptide (hNMU-25 or NMS) was run in 4% plasma (naive plasma) to serve as the standard. The concentration of the peptide in plasma was calculated based on extrapolations from the appropriate standard using the GraphPad Prism software.
In the experiment, the animals were dosed subcutaneously with 10 mg/kg of human NMU-25 or human NMS and plasma was collected at various time points post dose and measured in the Bioassay. […]

[4] = system: male C57BL/6 diet-induced obese mice; assay: Intraperitoneal glucose tolerance test (IPGTT); format: in vivo; conditions: one and three mpk injected 30 minutes before IPGTT, glucose 2 g/kg i.p., either dosage level
Method: Fourteen male C57BL/6 diet-induced obese mice (˜30 wk age) were used. Five hours before the experiment, food was removed, and clean cages were provided. Saline with or without NMS at one and three mpk were injected 30 minutes before the IPGTT and a blood sample was taken. Then glucose (2 g/kg) was injected intraperitoneally. Blood samples were taken after 15, 30, 60, 90, and 120 minutes and glucose levels were determined with the glucose oxidase method.

EC50 ([1]; FLIPR): 4.4 nM | metabolic stability in vivo compared to NMU [3]: greater metabolic stability
Substance: H-ILQRGSGTAAVDFTKKDHTATWGRPFFLFRPRN-NH2 [NMS, reference compound]
% Activity ([1]; maximum response at 1 μM compared to the human NMU-25 response at the same concentration): 100% | effect on food intake and body weight compared with NMU [2]: appeared to be greater than that observed for NMU | body weight ([2]; cumulative change, FIG. 2A): significantly reduced | food intake ([2]; cumulative, FIG. 2B): significantly reduced | glucose metabolism (IPGTT) [4]: enhanced glucose metabolism
